Four molecules from patent US20230085307A1, “PYRIDAZINONE COMPOUND AND HERBICIDE” (NISSAN CHEMICAL CORPORATION, priority 2019, published 2023) can be followed below.

The test system of assay [1] is blackgrass. Briefly: Test Example 4: herbicidal effect by soil treatment (Table 19, symbol J). The class given is in vivo, blackgrass (Alopecurus myosuroides). As to conditions: amount of applied herbicide 320 g/ha. The procedure, abridged:
(§1)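 Step 1: sow seeds in sterilized diluvial soil, cover ~1.5 cm. Step 2: spray diluted emulsion onto soil surface at predetermined rate. Step 3: greenhouse, 25–30° C, three weeks. Step 4: grade effect on each plant by earlier criteria.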

The next assay has as its system chickweed. The assay can be described thus: Test Example 5: herbicidal effect by foliage application, plastic box (Table 20, symbol P). The conditions noted are these: foliage application, 320 g/ha, three weeks after application. The assay is classed as in vivo, common chickweed (Stellaria media). The procedure, abridged: (§2)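 Foliar spray test: emulsion formulation diluted in water to a set application rate, sprayed onto 14-day-old plants raised in diluvial soil at 25° C to 30° C under glass. Both herbicidal effect and crop effect rated visually three weeks later.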

In assay [2] the test system is blackgrass. The assay can be described thus: Test Example 5: herbicidal effect by foliage application, plastic box (Table 20, symbol J). The assay is classed as in vivo, blackgrass (Alopecurus myosuroides). As to conditions: foliage application, 320 g/ha, three weeks after application. The procedure, abridged:
as §2

The test system of assay [3] is wild oat. The assay can be described thus: Test Example 4: herbicidal effect by soil treatment (Table 19, symbol I). The assay is classed as in vivo, wild oat (Avena fatua). The conditions noted are these: amount of applied herbicide 320 g/ha. Put shortly: as §1
In assay [4] the test system is barnyard grass. Briefly: Test Example 4: herbicidal effect by soil treatment (Table 19, symbol H). The assay is classed as in vivo, barnyard grass (Echinochloa crus-galli). The conditions noted are these: amount of applied herbicide 320 g/ha. The procedure, abridged: as §1
The test system of assay [5] is redroot pigweed. The assay can be described thus: Test Example 5: herbicidal effect by foliage application, plastic box (Table 20, symbol N). The conditions noted are these: foliage application, 320 g/ha, three weeks after application. The class given is in vivo, redroot pigweed (Amaranthus retroflexus). The procedure, abridged:
as §2

The test system of assay [6] is barnyard grass. The assay can be described thus: Test Example 5: herbicidal effect by foliage application, plastic box (Table 20, symbol H). The conditions noted are these: foliage application, 320 g/ha, three weeks after application. The assay is classed as in vivo, barnyard grass (Echinochloa crus-galli). Put shortly: as §2
For a further assay, the system named is Italian ryegrass. The assay can be described thus: Test Example 4: herbicidal effect by soil treatment (Table 19, symbol K). As to conditions: amount of applied herbicide 320 g/ha. The class given is in vivo, Italian ryegrass (Lolium multiflorum). The procedure, abridged: as §1
For the next assay, the system named is southern crabgrass. Briefly: Test Example 4: herbicidal effect by soil treatment (Table 19, symbol F). The assay is classed as in vivo, southern crabgrass (Digitaria ciliaris). As to conditions: amount of applied herbicide 320 g/ha. Put shortly: as §1
Assay [7] concerns wild oat. Briefly: Test Example 5: herbicidal effect by foliage application, plastic box (Table 20, symbol I). The assay is classed as in vivo, wild oat (Avena fatua). The conditions noted are these: foliage application, 320 g/ha, three weeks after application. Put shortly:
as §2

Another assay has as its system late watergrass. The assay can be described thus: Test Example 1: herbicidal activity, application before weed generation under submerged conditions (Table 16, symbol A). The assay is classed as in vivo, late watergrass (Echinochloa oryzicola). The conditions noted are these: amount of applied herbicide 320 g/ha. Put shortly: (§3)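 Emulsion formulation, water-diluted to set dose, was put onto the flooded surface (4 cm depth, alluvial soil) the same day weeds were sown and 2.5-leaf rice transplanted. After 3 weeks at 25-30 °C under glass, each species was rated 0 (≤5% kill) to 5 (≥90% kill).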

Another assay deals with oval-leafed pondweed. The assay can be described thus: Test Example 2: herbicidal activity, application during weed generation under submerged conditions (Table 17, symbol C). The assay is classed as in vivo, oval-leafed pondweed (Monochoria vaginalis). As to conditions: AAH 320 g/ha; application during weed generation, submerged conditions. Put shortly:
(§4)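 3-wk visual-criteria score after one water-surface dose. Emulsion formulation, water-diluted to set rate; applied at 1–2 leaf stage; alluvial soil, 4 cm standing water; seeds co-sown; greenhouse 25–30° C.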

Assay [8] deals with redroot pigweed. Briefly: Test Example 4: herbicidal effect by soil treatment (Table 19, symbol N). The conditions noted are these: amount of applied herbicide 320 g/ha. The assay is classed as in vivo, redroot pigweed (Amaranthus retroflexus). Put shortly: as §1
Another assay relates to green foxtail. The assay can be described thus: Test Example 5: herbicidal effect by foliage application, plastic box (Table 20, symbol G). The assay is classed as in vivo, green foxtail (Setaria viridis). The conditions noted are these: foliage application, 320 g/ha, three weeks after application. The procedure, abridged: as §2
Assay [9] has as its system Japanese bulrush. Briefly: Test Example 2: herbicidal activity, application during weed generation under submerged conditions (Table 17, symbol B). The class given is in vivo, Japanese bulrush (Schoenoplectus juncoides). As to conditions: AAH 320 g/ha; application during weed generation, submerged conditions. The procedure, abridged: as §4
For assay [10], the system named is Japanese bulrush. Briefly: Test Example 1: herbicidal activity, application before weed generation under submerged conditions (Table 16, symbol B). The assay is classed as in vivo, Japanese bulrush (Schoenoplectus juncoides). As to conditions: amount of applied herbicide 320 g/ha. Put shortly:
as §3

For `COc1ccccc1-c1sc2cc(OC(F)F)ccc2c1-c1c(O)c(C)nn(C)c1=O` [3-113], the “J: blackgrass, herbicidal effect grade” value in the assay with blackgrass [1] is 4 (Herbicidal rate of 70% or more and less than 90%); in the assay with blackgrass [2], 5 (Herbicidal rate of 90% or more (almost completely withered)). In the assay on chickweed, the “P: chickweed, herbicidal effect grade” value is on record as 5 (Herbicidal rate of 90% or more (almost completely withered)). The “I: wild oat, herbicidal effect grade” value with wild oat [3] is 0 (Herbicidal rate of 5% or less (almost no effect)); with wild oat [7], 4 (Herbicidal rate of 70% or more and less than 90%). Also, the “H: barnyard grass, herbicidal effect grade” value (“H: barnyard grass” below) in the assay on barnyard grass [4] and with barnyard grass [6] was 5 (Herbicidal rate of 90% or more (almost completely withered)) in each case. The “N: redroot pigweed, herbicidal effect grade” value (“N: redroot pigweed” for short) with redroot pigweed [5] and in the assay on redroot pigweed [8] was 5 (Herbicidal rate of 90% or more (almost completely withered)) each time. Also, the “K: Italian ryegrass, herbicidal effect grade” value (shortened to “K: Italian ryegrass”) in the assay on Italian ryegrass is on record as 5 (Herbicidal rate of 90% or more (almost completely withered)). Also, in the assay with southern crabgrass, the “F: southern crabgrass, herbicidal effect grade” value (“F: southern crabgrass” for short) is 4 (Herbicidal rate of 70% or more and less than 90%). In addition, the “Herbicidal effect, A: late watergrass” value in the assay on late watergrass was 4 (Herbicidal rate of 70% or more and less than 90%). Further, the “herbicidal effect rating, C: oval-leafed pondweed” value (from here on “herbicidal effect rating, C”) in the assay with oval-leafed pondweed is given as 0 (Herbicidal rate of 5% or less (almost no effect)). The “G: green foxtail, herbicidal effect grade” value (“G: green foxtail” for short) in the assay with green foxtail is 5 (Herbicidal rate of 90% or more (almost completely withered)). Moreover, the “herbicidal effect rating, B: Japanese bulrush” value (“herbicidal effect rating, B” for short) in the assay with Japanese bulrush [9] was 2 (Herbicidal rate of 20% or more and less than 40%). The “Herbicidal effect, B: Japanese bulrush” value in the assay with Japanese bulrush [10] was 3 (Herbicidal rate of 40% or more and less than 70%).

For `COc1ccccc1-c1sc2cc(OCc3ccccc3)ccc2c1-c1c(O)c(C)nn(C)c1=O` [3-118], the “J: blackgrass, herbicidal effect grade” value in the assay on blackgrass [1] is 0 (Herbicidal rate of 5% or less (almost no effect)); with blackgrass [2], 4 (Herbicidal rate of 70% or more and less than 90%). Further, in the assay with chickweed, the “P: chickweed, herbicidal effect grade” value is 3 (Herbicidal rate of 40% or more and less than 70%). Also, the “I: wild oat, herbicidal effect grade” value in the assay on wild oat [3] was 0 (Herbicidal rate of 5% or less (almost no effect)); in the assay on wild oat [7], 3 (Herbicidal rate of 40% or more and less than 70%). Moreover, the “H: barnyard grass” value in the assay with barnyard grass [4] and with barnyard grass [6] was 0 (Herbicidal rate of 5% or less (almost no effect)) in each case. Also, the “N: redroot pigweed” value in the assay on redroot pigweed [5] was 5 (Herbicidal rate of 90% or more (almost completely withered)); with redroot pigweed [8], 3 (Herbicidal rate of 40% or more and less than 70%). In addition, the “K: Italian ryegrass” value in the assay on Italian ryegrass is 3 (Herbicidal rate of 40% or more and less than 70%). The “F: southern crabgrass” value with southern crabgrass is given as 0 (Herbicidal rate of 5% or less (almost no effect)). The “Herbicidal effect, A: late watergrass” value in the assay on late watergrass was 3 (Herbicidal rate of 40% or more and less than 70%). Moreover, in the assay with oval-leafed pondweed, the “herbicidal effect rating, C” value was 0 (Herbicidal rate of 5% or less (almost no effect)). For the same molecule, in the assay with green foxtail, the “G: green foxtail” value was 3 (Herbicidal rate of 40% or more and less than 70%). The “herbicidal effect rating, B” value in the assay on Japanese bulrush [9] is 2 (Herbicidal rate of 20% or more and less than 40%). In the assay on Japanese bulrush [10], the “Herbicidal effect, B: Japanese bulrush” value was 3 (Herbicidal rate of 40% or more and less than 70%).

For the molecule `COCCOc1ccc2c(-c3c(O)c(C)nn(C)c3=O)c(-c3ccccc3OC)sc2c1` [3-121], the “J: blackgrass, herbicidal effect grade” value in the assay on blackgrass [1] and in the assay on blackgrass [2] was 5 (Herbicidal rate of 90% or more (almost completely withered)) each time. Besides, the “P: chickweed, herbicidal effect grade” value with chickweed is listed as 5 (Herbicidal rate of 90% or more (almost completely withered)). Further, the “I: wild oat, herbicidal effect grade” value is 3 (Herbicidal rate of 40% or more and less than 70%) with wild oat [3]; 5 (Herbicidal rate of 90% or more (almost completely withered)) in the assay with wild oat [7]. For the same molecule, the “H: barnyard grass” value in the assay on barnyard grass [4] and with barnyard grass [6] was 5 (Herbicidal rate of 90% or more (almost completely withered)) each time. Also, the “N: redroot pigweed” value with redroot pigweed [5] and in the assay on redroot pigweed [8] was 5 (Herbicidal rate of 90% or more (almost completely withered)) throughout. The “K: Italian ryegrass” value with Italian ryegrass was 5 (Herbicidal rate of 90% or more (almost completely withered)). Further, in the assay on southern crabgrass, the “F: southern crabgrass” value was 5 (Herbicidal rate of 90% or more (almost completely withered)). Besides, the “Herbicidal effect, A: late watergrass” value with late watergrass is given as 5 (Herbicidal rate of 90% or more (almost completely withered)). Besides, the “herbicidal effect rating, C” value in the assay on oval-leafed pondweed was 3 (Herbicidal rate of 40% or more and less than 70%). Also, in the assay with green foxtail, the “G: green foxtail” value is recorded as 5 (Herbicidal rate of 90% or more (almost completely withered)). Also, the “herbicidal effect rating, B” value in the assay with Japanese bulrush [9] was 3 (Herbicidal rate of 40% or more and less than 70%). The “Herbicidal effect, B: Japanese bulrush” value in the assay on Japanese bulrush [10] is on record as 5 (Herbicidal rate of 90% or more (almost completely withered)).

Consider `COc1ccccc1-c1sc2cc(OCC3CC3)ccc2c1-c1c(O)c(C)nn(C)c1=O` [3-129], for which the “J: blackgrass, herbicidal effect grade” value with blackgrass [1] is 4 (Herbicidal rate of 70% or more and less than 90%); in the assay with blackgrass [2], 5 (Herbicidal rate of 90% or more (almost completely withered)). Further, the “P: chickweed, herbicidal effect grade” value in the assay with chickweed is on record as 5 (Herbicidal rate of 90% or more (almost completely withered)). In addition, the “I: wild oat, herbicidal effect grade” value is 1 (Herbicidal rate of 5% or more and less than 20%) in the assay on wild oat [3]; 3 (Herbicidal rate of 40% or more and less than 70%) in the assay with wild oat [7]. Moreover, the “H: barnyard grass” value in the assay with barnyard grass [4] is 4 (Herbicidal rate of 70% or more and less than 90%); in the assay on barnyard grass [6] it was 4 (Herbicidal rate of 70% or more and less than 90%). In addition, the “N: redroot pigweed” value in the assay with redroot pigweed [5] and with redroot pigweed [8] was 5 (Herbicidal rate of 90% or more (almost completely withered)) throughout. Also, in the assay with Italian ryegrass, the “K: Italian ryegrass” value is 5 (Herbicidal rate of 90% or more (almost completely withered)). In the assay on southern crabgrass, the “F: southern crabgrass” value is 4 (Herbicidal rate of 70% or more and less than 90%). The “Herbicidal effect, A: late watergrass” value with late watergrass is 5 (Herbicidal rate of 90% or more (almost completely withered)). For the same molecule, in the assay on oval-leafed pondweed, the “herbicidal effect rating, C” value was 3 (Herbicidal rate of 40% or more and less than 70%). For the same molecule, the “G: green foxtail” value in the assay on green foxtail is listed as 5 (Herbicidal rate of 90% or more (almost completely withered)). Moreover, in the assay on Japanese bulrush [9], the “herbicidal effect rating, B” value is 3 (Herbicidal rate of 40% or more and less than 70%). The “Herbicidal effect, B: Japanese bulrush” value with Japanese bulrush [10] was 5 (Herbicidal rate of 90% or more (almost completely withered)).
